Laboratory results published in patent US9492485B2, “Pluripotent stem cell-derived brown adipocytes, pluripotent stem cell-derived cell aggregate, method for producing same, and cell therapy and medical therapy therefor” (ID Pharma Co., Ltd., priority 2011, dated 2016).

Experiments:
[1] = test system: undifferentiated human iPS cells; experiment: Oxygen consumption (OCR) with XF96 Extracellular Flux Analyzer; format: cell-based; conditions: CL316,243 100 nM or isoproterenol 100 μM, 4 hours (FIG. 12B left)
[2] = test system: white adipocytes produced from human mesenchymal stem cells (MSCs); experiment: as above; format: cell-based; conditions: CL316,243 100 nM or isoproterenol 100 μM, 4 hours (FIG. 12C)
[3] = test system: undifferentiated human ES cells; experiment: as above; format: cell-based; conditions: CL316,243 100 nM or isoproterenol 100 μM, 4 hours (FIG. 12A left)
[4] = test system: brown adipocytes derived from human iPS cells; experiment: as above; format: cell-based; conditions: CL316,243 100 nM or isoproterenol 100 μM, 4 hours (FIG. 12B right)
Procedure: (§1) Brown adipocytes were differentiated from KhES-3 and SeV-iPS cell lines in accordance with the method described in Example 5. Here, the adhesion culture in the step (B) for differentiation induction was carried out using a 96-well plate for exclusive use in XF96 Extracellular Flux Analyzer (Seahorse Bioscience Inc., Billerica, Mass.) after coating with 0.1% gelatin. The cell aggregates were seeded at an amount of 30 cell aggregates per well. The cell aggregates seeded in the 96-well plate were incubated in a 5% CO2 incubator at 37° C. for 2 days. Subsequently, isoproterenol (100 μM) or CL316,243 (100 nM) was added to a half of the wells, and incubation was further carried out in a 5% CO2 incubator at 37° C. for 4 hours, followed by measurement of oxygen consumption (OCR) per minute with XF96 Extracellular Flux Analyzer (Seahorse Bioscience Inc., Billerica, Mass.).

[5] = test system: brown adipocytes derived from human ES cells; experiment: as above; format: cell-based; conditions: CL316,243 100 nM or isoproterenol 100 μM, 4 hours (FIG. 12A right)
Procedure: as §1

[6] = test system: brown adipocytes produced from KhES-3 cell line and SeV-iPS cell line; experiment: RT-PCR of PRDM16 and UCP1 gene expression after addition of adrenaline receptor agonist; format: cell-based, human; conditions: 100 μM, 4 hours, RT-PCR (FIG. 10)
Procedure: Brown adipocytes were produced from KhES-3 cell line and SeV-iPS cell line in accordance with the method described in Example 5 and were reacted with 100 μM of an adrenaline receptor agonist, isoproterenol, for 4 hours. In order to evaluate the activation of the brown adipocytes by the addition of the adrenaline receptor agonist, the expressions of the PRDM16 and UCP1 genes were investigated by RT-PCR.

[7] = test system: human ES cell-derived brown adipocytes; experiment: Influence of brown adipocyte stimulant on hematopoietic cytokine expression levels; format: cell-based; conditions: treatment with isoproterenol (FIG. 16E)
[8] = test system: 10-week old mice (male, ICR strain); experiment: Relief of 5-fluorouracil-induced myelosuppression in mice, bone marrow cell count; format: in vivo, mouse; conditions: 5-FU 100 mg/kg; isoproterenol 30 μmol/kg on 3 to 6 days after; vs saline; P=0.032 (FIG. 16F)
Procedure: Furthermore, whether or not a brown adipocyte stimulant has an effect of relieving a severe side effect of anticancer drug administration, myelosuppression, was investigated. Specifically, an anticancer drug, 5-fluorouracil (5-FU), was administered to 10-week old mice (male, ICR strain) at a dose of 100 mg/kg. Isoproterenol (30 μmol/kg) or saline was administered to the mice on 3 to 6 days after the administration, and bone marrow cells were collected from the thighbone over time and were counted.

Structure (SMILES): C[C@H](Cc1ccc2c(c1)OC(C(=O)[O-])(C(=O)[O-])O2)NC[C@H](O)c1cccc(Cl)c1.[Na+].[Na+] [CL316,243]
- OCR value [1]: no change
- OCR value [2]: no change
- OCR value [3]: no change
- OCR value [4]: significant increase
- OCR value [5]: significant increase

Structure (SMILES): CC(C)NCC(O)c1ccc(O)c(O)c1 (stereo not drawn) [isoproterenol]
- expression of the PRDM16 gene [6]: increase
- expression of the UCP1 gene [6]: increase
- expression levels of cytokines (TPO, IL6, IL3, G-CSF, GM-CSF, EPO) [7]: increased
- number of bone marrow cells on the 7th day from the 5-FU administration [8]: significantly increased
